No end group written: not given here.
Tested on: sera from patients infected with group O HIV-1 retroviruses
Experiment: Immunoenzymatic test: Test No. 1 (immunoreactivity of peptides coated on microplates)
Type: binding, human
Parameters: key to ABSORBANCE: >: signal greater than the reading capacity of the spectrophotometer
Conditions: for ABSORBANCE: cyclized peptide 2 μg/ml
Method: The sera used ESS, DUR, VAU and HAD are sera from French patients infected with group O HIV-1 retroviruses. The other serum samples from patients infected with group O HIV-1 retroviruses were obtained by the Yaoundé Pasteur Centre in Cameroon and were serotyped group O according to the serological algorithm described in AIDS (1977), 11, pp 445-453.
The HIV-negative sera (n=48) were obtained from healthy volunteers.
The synthetic peptides used were dissolved in water at a concentration of 1 mg/ml (stock solution). For the solid phase sensitization step (coating), 110 μl of a solution at 2 μg/ml of each peptide (obtained by diluting the stock solution with 0.1 M carbonate buffer solution) were added to each well of the microtitre plates Microtiter™ (NUNC). After incubating overnight at room temperature, the microplates were first washed with a Tris-NaCl buffer solution pH 7.4 containing 0.1% of Tween® 20 and 0.001% sodium merthiolate, and then saturated with a PBS solution containing 0.5% of Régilait™ (dried skimmed milk). After aspirating the saturating solution, the plates were heated for 10 min at 50° C.
The serum samples were diluted 1/5 with a skimmed milk solution (citrate buffer supplemented with 0.01% of phenol red, 0.25% of chloroform and 0.25% of Kathon®), deposited in the wells of the plates and incubated for 30 min at 40° C.
After washing with a Tris-NaCl buffer solution pH 7.4 containing 0.1% of Tween® 20 and 0.001% of sodium merthiolate, 100 μl of a solution of conjugate consisting of horseradish peroxidase-labelled anti-human IgG and IgM goat antibodies, containing as preservative 0.01% of sodium merthiolate, in solution in a citrate buffer solution supplemented with 30% glycerol and 25% normal foetal calf serum, were added to each plate well and then the plates were incubated for 30 min at 40° C.
After washing with a Tris-NaCl buffer solution pH 7.4 containing 0.1% of Tween® 20 and 0.001% of sodium merthiolate, the colour was developed by adding, to each well, 100 μl of O-phenylenediamine in solution in hydrogen peroxide. The microplates were then incubated for 30 min at room temperature and in the dark. The coloured reaction was then stopped by addition of 100 μl of 4N sulphuric acid. The absorbance (A) was determined at 490 and 620 nm.
The relative absorbance (A490-A620) read in each well is proportional to the immunoreactivity of each peptide. It indicates the ability of each peptide to react with the biological sample with which the test is carried out. The cut-off value was determined as being an absorbance equal to 0.15. It corresponds to the mean of the negative values (n=48) plus 12 standard deviations.
The reactivity of the peptides of the invention (peptide No. 3 (4B), peptide No. 2 (3B) and peptide No. 1 (2B), all in cyclized form), was compared with that of two synthetic peptides having, as sequence, a portion of the natural sequence of the envelope (env) of the VAU isolate (group O HIV-1 retrovirus) and comprising an immunodominant epitope of gp41.
For the study, these peptides were used in cyclized form.

LLSLWGCRGKAVCYTSVQWNET [PEPTIDE No. 1 (2B)]
ABSORBANCE (serum 134): >
ABSORBANCE (serum 402): >
ABSORBANCE (serum 625): >
ABSORBANCE (serum 1062): >
ABSORBANCE (serum 1105*): >
ABSORBANCE (serum 1581): >
ABSORBANCE (serum 1702): 1.162
ABSORBANCE (serum 1754): >
ABSORBANCE (serum 2294): 0.447
ABSORBANCE (serum 2312): >
ABSORBANCE (serum 2313): >
ABSORBANCE (serum 2352): 0.205
ABSORBANCE (serum 2551): >
ABSORBANCE (serum 2700): >
ABSORBANCE (serum 3016): 0.243
ABSORBANCE (serum 3136): 0.302
ABSORBANCE (serum 3235): >
ABSORBANCE (serum 3236): >
ABSORBANCE (serum 3302): 0.386
ABSORBANCE (serum 3482): 1.473
ABSORBANCE (serum 3529): 1.803
ABSORBANCE (serum 3600*): 2.743
ABSORBANCE (serum 3627*): 2.910
ABSORBANCE (serum 3637): >
ABSORBANCE (serum 3653): 0.044
ABSORBANCE (serum 3771): 0.544
ABSORBANCE (serum 3884*): 1.839
ABSORBANCE (serum 3891): 2.780
ABSORBANCE (serum 3935): 0.307
ABSORBANCE (serum 3945): >
ABSORBANCE (serum 4021*): >
ABSORBANCE (serum 4288*): 2.802
ABSORBANCE (serum 4364): 1.382
ABSORBANCE (serum 4434): >
ABSORBANCE (serum 4477): >
ABSORBANCE (serum 4489*): >
ABSORBANCE (serum 5149*): >
ABSORBANCE (serum 5164): >
ABSORBANCE (serum 5210): >
ABSORBANCE (serum 5270*): >
ABSORBANCE (serum 5373): >
ABSORBANCE (serum 5453): >
ABSORBANCE (serum 5766*): >
ABSORBANCE (serum 5931): >
ABSORBANCE (serum 5969*): >
ABSORBANCE (serum 6111): >
ABSORBANCE (serum 6165): 2.714
ABSORBANCE (serum 6198*): >
ABSORBANCE (serum 6295*): >
ABSORBANCE (serum 6487): 2.687
ABSORBANCE (serum 6512*): >
ABSORBANCE (serum 6627): >
ABSORBANCE (serum 6689*): >
ABSORBANCE (serum 6697): >
ABSORBANCE (serum 6782): 2.462
ABSORBANCE (serum 6891): 0.062
ABSORBANCE (serum 6976*): >
ABSORBANCE (serum 6998): >
ABSORBANCE (serum 7007): >
ABSORBANCE (serum 7120): >
ABSORBANCE (serum 7212): >
ABSORBANCE (serum 7258*): 2.477
ABSORBANCE (serum 7297*): >
ABSORBANCE (serum 7439): >
ABSORBANCE (serum 7443): >
ABSORBANCE (serum DUR*): >
ABSORBANCE (serum ESS*): 2.494
ABSORBANCE (serum HAD): 0.041
ABSORBANCE (serum VAU*): >
immunoreactivity compared with the other peptides (in words) (summary of Table IV): more immunoreactive than the VAU 22 AA peptide

RLLALETFIEENELLNLWGCKNRAICYTSVKWNKT (cysteine pairing not given here) [VAU 35 AA, reference compound]
ABSORBANCE (serum 134): >
ABSORBANCE (serum 402): >
ABSORBANCE (serum 625): 2.585
ABSORBANCE (serum 1062): >
ABSORBANCE (serum 1105*): 0.129
ABSORBANCE (serum 1581): 0.894
ABSORBANCE (serum 1702): >
ABSORBANCE (serum 1754): 1.948
ABSORBANCE (serum 2294): >
ABSORBANCE (serum 2312): >
ABSORBANCE (serum 2313): >
ABSORBANCE (serum 2352): >
ABSORBANCE (serum 2551): >
ABSORBANCE (serum 2700): >
ABSORBANCE (serum 3016): >
ABSORBANCE (serum 3136): >
ABSORBANCE (serum 3235): >
ABSORBANCE (serum 3236): >
ABSORBANCE (serum 3302): >
ABSORBANCE (serum 3482): >
ABSORBANCE (serum 3529): >
ABSORBANCE (serum 3600*): >
ABSORBANCE (serum 3627*): >
ABSORBANCE (serum 3637): 1.647
ABSORBANCE (serum 3653): 1.322
ABSORBANCE (serum 3771): >
ABSORBANCE (serum 3884*): >
ABSORBANCE (serum 3891): >
ABSORBANCE (serum 3935): 0.227
ABSORBANCE (serum 3945): >
ABSORBANCE (serum 4021*): 1.957
ABSORBANCE (serum 4364): >
ABSORBANCE (serum 4434): >
ABSORBANCE (serum 4477): >
ABSORBANCE (serum 4489*): 1.718
ABSORBANCE (serum 5149*): >
ABSORBANCE (serum 5164): >
ABSORBANCE (serum 5210): >
ABSORBANCE (serum 5270*): >
ABSORBANCE (serum 5373): 0.856
ABSORBANCE (serum 5453): 1.482
ABSORBANCE (serum 5766*): >
ABSORBANCE (serum 5931): 2.225
ABSORBANCE (serum 5969*): >
ABSORBANCE (serum 6111): >
ABSORBANCE (serum 6165): >
ABSORBANCE (serum 6198*): >
ABSORBANCE (serum 6295*): >
ABSORBANCE (serum 6487): 2.891
ABSORBANCE (serum 6512*): 0.174
ABSORBANCE (serum 6627): >
ABSORBANCE (serum 6689*): >
ABSORBANCE (serum 6697): >
ABSORBANCE (serum 6782): 2.214
ABSORBANCE (serum 6891): 0.496
ABSORBANCE (serum 6976*): >
ABSORBANCE (serum 6998): >
ABSORBANCE (serum 7007): 2.151
ABSORBANCE (serum 7120): >
ABSORBANCE (serum 7212): >
ABSORBANCE (serum 7258*): >
ABSORBANCE (serum 7297*): >
ABSORBANCE (serum 7439): >
ABSORBANCE (serum 7443): 0.574
ABSORBANCE (serum DUR*): 0.872
ABSORBANCE (serum ESS*): >
ABSORBANCE (serum HAD): 0.871
ABSORBANCE (serum VAU*): >

From US7053175B1, “Synthetic peptides useful in biological assays for detecting infections caused by group O HIV-1 viruses” (Bio-Rad Pasteur, priority 1997, dated 2006)
